Where only a bound is given, the exact number is not on record here.

The conditions of series [1]: once formed, in patients administered (±)-TBZ; cited from earlier work.
The test system of the next series is VMAT2. To be noted: Scherman et al. 1983; read-out: IC50, inhibition of catecholamine uptake by VMAT2; cited from earlier work.
The next series relates to male Wistar rats. Description: Conditioned avoidance response (CAR) assay of antipsychotic activity. Format: in vivo, rat. Here is the method:
Animals: Adult male Wistar rats from Envigo (Indianapolis, Ind.) were used in this study. Rats were received at approximately 150 g, assigned unique identification numbers and group housed 2-3 per cage in ventilated cages. All rats were examined, handled, and weighed prior to initiation of the study to assure adequate health and suitability. During the course of the study, 12/12 light/dark cycles were maintained. The RT was maintained between 20° C. and 23° C. with a relative humidity around 50%. Chow and water were provided ad libitum for the duration of the study. All testing was conducted during the light cycle of the rats.
Compound 4-1 (0.03, 0.1, 0.3, and 1 mg/kg) was formulated in 0.25% methyl cellulose and administered orally at a dose volume of 3 mL/kg 120 minutes prior to test.
Compound 4-15 (0.03, 0.1, 0.3, and 1 mg/kg) was formulated in 0.25% methyl cellulose and administered orally at a dose volume of 3 mL/kg 120 minutes prior to test.
In the CAR paradigm, an animal is trained to respond to a conditioned stimulus (auditory and visual) by negative reinforcement (foot shock). Numerous studies have shown that typical and atypical antipsychotic drugs selectively suppress CAR, thus making it an ideal assay to screen potential antipsychotic compounds (Wadenberg & Hicks, Neuroscience and Biobehavioral Reviews, (1999) 23:851-862).
Rats were placed in the CAR two-way shuttle box and the training period of 20 trials ensued. A trial consisted of a 10-sec presentation of an 80 dB white noise followed by a scrambled 0.6 mA foot shock lasting up to 20 sec. The inter-trial interval ranged from 20-60 sec. The rat learned to avoid shock by moving from one compartment to the other when the cue is presented. […] The following measures were captured from the assay:
Avoidance response: If the rat moved from one compartment to the other during the cued-stimulus (CS) presentation. Decreased avoidance responding is the typical signature of an efficacious dose of an antipsychotic.
Avoidance response data were expressed as the number of avoidance responses as well as percent of avoidance responses based on the three baseline responses prior to drug test. Escape failures were expressed as the total number of failures during the test session.
Body weight and avoidance data were analyzed by analysis of variance (ANOVA) followed by Dunnett's post-hoc comparisons when appropriate. Escape failures were analyzed by Kruskal-Wallis nonparametric analysis followed by Dunn's post hoc comparisons when appropriate. Results are reported as mean SEM. An effect was considered statistically significant if p<0.05.

The target in the next series is human VMAT2 (Homo sapiens (Human), UniProt Q05940). As to the kind of experiment: VMAT2 radioligand binding, 3H-dihydrotetrabenazine competition on human platelet homogenate. The following applies: 10 nM 3H-dihydrotetrabenazine, human platelet homogenate, 25° C., 90 minutes; read-out: VMAT2 Ki. Put shortly: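 Ki from scintillation counting of filter-bound ³H-dihydrotetrabenazine (10 nM) after 90 min, 25 °C incubation with twelve concentrations of compound. Membranes: human platelet homogenate, 30 μg protein per well; buffer DPBS, 1 mM EDTA, pH 7.4.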

The next series concerns male Sprague-Dawley rats. Description: Open-field hypolocomotion / locomotor activity (LMA) assay. Format: in vivo. The following applies: Rattus norvegicus, pre-treatment 60 or 120 minutes, beam breaks in 30 min, read-out: ED50, reduction of locomotor activity. The protocol: The effect of VMAT2 inhibitors on dopamine depletion was measured using the locomotor activity (LMA) assay. Following a pre-treatment time of 60 or 120 minutes, male Sprague-Dawley rats (200-250 g) were placed in a clear cage surrounded by photocell detectors (San Diego Instruments). Rat locomotor activity was detected by breaks in the photocell beams and activity is defined as the number of beam breaks in 30 min. Data was analyzed by one-way analysis of variance (ANOVA; SigmaStat version 3.0.1, SPSS, Chicago, Ill.) followed by the Student Newman Keuls post-hoc test for significance.

A short description of series [2]: Stability of compounds in human liver microsomes. The class given is in vitro ADME. In a few lines: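 Compound at 0.5 μM incubated at 37 °C with pooled mixed-gender human liver microsomes (0.5 mg/mL protein) and an NADPH-generating system in pH 7.4 phosphate buffer, sampled 0–60 min. Parent depletion tracked by LC-MS/MS; t1/2 derived from the slope by non-linear regression, with predicted extraction ratio and maximum bioavailability also calculated.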

Sequence of human VMAT2 (Q05940 whole entry): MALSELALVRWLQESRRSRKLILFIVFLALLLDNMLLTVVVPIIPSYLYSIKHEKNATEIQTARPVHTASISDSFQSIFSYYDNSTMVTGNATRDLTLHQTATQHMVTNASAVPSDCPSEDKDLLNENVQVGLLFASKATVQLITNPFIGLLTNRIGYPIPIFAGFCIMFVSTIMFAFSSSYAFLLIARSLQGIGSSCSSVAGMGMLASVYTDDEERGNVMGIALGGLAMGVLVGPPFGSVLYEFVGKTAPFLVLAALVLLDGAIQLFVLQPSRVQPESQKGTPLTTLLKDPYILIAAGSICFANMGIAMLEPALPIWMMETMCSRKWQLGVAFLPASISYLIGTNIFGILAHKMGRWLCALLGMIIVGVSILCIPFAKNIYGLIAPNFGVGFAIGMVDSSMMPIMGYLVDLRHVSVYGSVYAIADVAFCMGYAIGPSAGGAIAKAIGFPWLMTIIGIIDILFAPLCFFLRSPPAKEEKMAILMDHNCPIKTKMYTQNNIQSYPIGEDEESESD

Regarding `COc1cc2c(cc1OC)C1CC(O)C(CC(C)C)CN1CC2` (stereo not drawn) [[+]-beta-DHTBZ, 3-isobutyl-9,10-dimethoxy-1,3,4,6,7,11b-hexahydro-2H-pyrido[2,1-a]isoquinolin-2-ol], the half-life entry in series [1] was “approximately 5 hours”.
As to `COc1cc2c(cc1OC)C1CC(=O)C(CC(C)C)CN1CC2` (racemic) [(±)-TBZ, (±)-Tetrabenazine], the IC50 in the series on VMAT2 was […].
Regarding `COc1cc2c(cc1OCC(F)(F)F)CCN1C[C@@H](CC(C)(C)C)[C@H](O)C[C@H]21` [Compound 4-1, (2R,3R,11bR)-3-(2,2-dimethylpropyl)-10-methoxy-9-(2,2,2-trifluoroethoxy)-1H,2H,3H,4H,6H,7H,11bH-pyrido[2,1-a]isoquinolin-2-ol], the “Avoidance and escape failures” value in the series with male Wistar rats (0.3 mg/kg, oral, Wistar rats) is given as “reduction in avoidance without significant increase in escape failures”. For the same compound, the ED50 came to 0.55 mg/kg with male Wistar rats (Rattus norvegicus, read-out: ED50, conditioned avoidance response) and 0.24 mg/kg with male Sprague-Dawley rats. In addition, at human VMAT2, the Ki amounted to 2.4 nM. The CLint scaled at 0.5 μM in series [2] (both sexes, liver microsomes, pH 7.4, calculated from HLM half-life, human, read-out: HLM Scaled Intrinsic Clearance) is at most 0.178 L/h/kg. Also, the half-life at 0.5 μM in series [2] (both sexes, pH 7.4, 0.5 μM compound, 0.5 mg/mL human liver microsomes, 37° C., maxed at 420 minutes, read-out: HLM Elimination half-life (t1/2, min)) was at least 420 min. For the same compound, in series [2] (predicted from HLM data, human), the “Predicted Max. Bioavailability (% F)” value is listed as at least 87 % F. For the same compound, the “HLM Predicted Systemic Clearance” value in series [2] (scaled from HLM half-life (Obach method), human) is at most 0.155 L/h/kg.

Broadly, the IC50 is the concentration that inhibits the measured activity by half. In general, ED50 refers to the midpoint of the dose-response relation. For orientation: Ki means a measure of affinity in units of concentration, obtained from inhibition or displacement.
